Measured values from a melting point compilation (Tetko et al.; mined from patent text by program, amines drawn as free bases though some values may be those of a salt).

melting point [°C]	SMILES
101 to 106	C#Cc1cc(=O)n2nc(S(=O)(=O)Cc3ccccc3)sc2n1
190 to 191	COc1ccc(-n2nnc(-c3ccc(Cl)c(Cl)c3)c2N)cc1
93 to 95	Cc1oc2c(C(O)CO)cccc2c1C (configuration not stated)
224 to 226	CCCc1c(C(C)=O)ccc(OCc2nc3nccnc3c(=O)[nH]2)c1O
110 to 120	Cc1noc(NS(=O)(=O)c2ccccc2-c2ccc(-c3ncco3)cc2CN(C(=O)C(C)C)C2CC2)c1C
> 200	C[C@@](N)(Cc1ccc(OC(F)(F)F)cc1)C(=O)Nc1cc(Cl)cc(Cl)c1
138 to 140	O=C(O)C(O)(CC1CCCCC1)c1ccccc1 (configuration not stated)
101 to 106	OCc1ccccc1-c1ccc(CBr)cc1
92 to 93	COc1ccc(C2=CCCS(=O)C2)cc1OC1CCCC1 (configuration not stated)
142 to 143	Cc1nn(-c2ccc(C(F)(F)F)cn2)cc1COc1cccc(CC(=O)O)c1
124 to 125	CCn1c([N+](=O)[O-])cnc1C=CN(C)C
190 to 192	O=C(O)Cc1c(C(=O)c2ccc(Cl)cc2Cl)[nH]c2cc(Cl)ccc12
195 to 196	CN1CCN(c2cccc3c2C[C@H](NC(=O)c2ccccc2)CC3)CC1
103 to 104	CC(C)COC(=O)NC1=NCC(c2ccccc2)N1C (configuration not stated)
144 to 146	CCCCNC(=O)NS(=O)(=O)c1sccc1C
195 to 196	CCC(C)(C)c1csc(C(C#N)=C(O)c2c(F)cccc2F)n1
145 to 146	CCN1C(=O)c2ccc(C(F)(F)F)cc2S(=O)(=O)c2ccccc21
153 to 154	O=C(CCc1nc(CCl)no1)c1ccc(-c2ccccc2)cc1
136 to 138	Cc1c(C#Cc2ccc(C(F)(F)F)cc2)ccc(N)c1C#N
90 to 91	Cc1nn(C)c2nc(-c3ccccc3)cc(N(C)C)c12
203 to 205	COc1ccc2c(c1)CC(=O)NC2c1ccccc1Cl (configuration not stated)
190	O=C(Nc1ccc(S(=O)(=O)Oc2ccccc2)cc1[N+](=O)[O-])NS(=O)(=O)Cl
115 to 116	Cc1oc(-c2ccccc2)nc1COc1ccc(C(=O)c2ccccc2)c(O)c1
170 to 172	COc1ccc(C(=O)Nc2c(Cl)cc(N)cc2Cl)cc1OC1CCCC1

melting point [°C]	SMILES
147 to 149	Cc1ncccc1C(=O)NCC1CCN(C[C@H]2COc3cccc(Cl)c3O2)CC1
58 to 62	CC(=O)O[C@H]1[C@H](OC(C)=O)CSC(Oc2ccc3c(ccn3C(=O)OC(C)(C)C)c2)[C@@H]1OC(C)=O (some centres not stated)
74 to 78	CCOC(=O)c1ccc2c(c1)sc1ccccc12
200 to 205	O=C1NC(=O)[C@@]2(C[C@@H](C(=O)NCCN3CCN(C(c4ccccc4)c4ccccc4)CC3)Oc3ccc(F)cc32)N1
83	O=CC=C(Cl)c1cccc([N+](=O)[O-])c1
178	Sc1nnc(-c2ccc(Cl)cc2)s1
189 to 194	CC(=O)C(=Cc1cc(O)c(O)c([N+](=O)[O-])c1)c1ccc(C)cc1
81	CCN(CC)CCOc1ccc(N2C(=O)C(c3ccccc3)=C3CCCCC32)cc1 (configuration not stated)
107 to 108	CC(C)c1ncc(CCCOc2nn(C)cc2CC(=O)O)c(Oc2ccc(Cl)cc2Cl)n1
82 to 83	Cn1nc(CO)nc1NCCCCOc1cccc(CN2CCCCC2)c1
233 to 235	CC(=O)Nc1cc(C(=O)NNC(=O)c2occ(-c3ccccc3)c2-c2ccccc2)ccc1O
128 to 130	COC(=O)c1ccc2c(c1)SCCC2NC(=O)OCc1ccccc1 (configuration not stated)
192 to 193	CC(=O)OC1CCC2(C)C(CCC3C2CCC2(C)C(N)C(O)CC32)C1 (configuration not stated)
213 to 215	COC(=O)c1ccccc1-n1c(CCl)nc2ccc(F)cc2c1=O
33 to 33.5	[N-]=[N+]=NCc1ccc(C(=O)c2ccc(Cl)cc2)c(Cl)c1
141 to 143	CCCCNCc1cc(N)c(Cc2ccccc2)c(S(N)(=O)=O)c1
160 to 162	Nc1nc(NC(CO)CO)c2ncn(C3C=CC(CO)C3)c2n1 (configuration not stated)
145	O=C1CCc2cc(Oc3ccc(F)cc3F)c([N+](=O)[O-])cc21
135 to 138	Cn1cc(C2=C(c3cn(CCCNS(C)(=O)=O)c4ccccc34)C(=O)NC2=O)c2ccccc21
114 to 116	CCOC(=O)CSc1cc(Cl)nc(Nc2cccc(C)c2C)n1
282	O=C(O)c1nn(-c2ccccc2)c2c1CCc1cc(Cl)ccc1-2
111 to 113	CC(C)(C)c1ccc(C(=O)Nc2ccc(N)cc2)cc1
119 to 121	CN(CC(C)(C)[N+](=O)[O-])c1ccc(N(C)CC(C)(C)[N+](=O)[O-])cc1
177 to 181	Cc1ccc(C(=O)NC(CCCCCl)C(=O)O)cc1 (configuration not stated)

melting point [°C]	SMILES
120	CC(=O)Oc1ccc2cc(NCCCCNC(=O)OC(C)(C)C)c(=O)oc2c1
113 to 116	CS(=O)(=O)Nc1ccc(/C=C\COCCCCCCNCC(O)c2ccc(O)c(CO)c2)cc1 (configuration not stated)
98	CCCc1c(OCCCOc2ccc([N+](=O)[O-])cc2)ccc(C(C)=O)c1O
287	CC1SC(=O)NN=C1c1ccc2c(c1)C(=Cc1cccs1)C(=O)N2 (configuration not stated)
107 to 112	CN1CCN(c2cccc3ccc(-n4cnc5ncccc54)cc23)CC1
152 to 154	CCCOCCOC(=O)C1=C(C)NC(C)=C(/C=C/S(=O)(=O)NC(C)C)C1c1cccc([N+](=O)[O-])c1 (configuration not stated)
128 to 129	CC1(C(=O)O)CCCc2cc(C3CCCCC3)ccc21 (configuration not stated)
90 to 91	BrCC[Si](CCBr)(CCBr)CCBr
61 to 63	Fc1ccc(-c2ncnc(C(F)(F)F)c2Cl)c(F)c1
158 to 161	Cn1cc(CCN2CCC3(CC2)CNC(=O)O3)c2ccccc21
131 to 133	CC(C)c1cc(C(C)C)c(S(=O)(=O)n2ccc3ccccc32)c(C(C)C)c1
180	Cc1cc(-c2ccc(-c3ccc(OCC4CO4)cc3)cc2)ccc1OCC1CO1 (configuration not stated)
135 to 136	COc1ccc(O)c(NS(C)(=O)=O)c1
119 to 121	CCN(O)C(=O)Cc1ccc2c(c1)C(=O)c1ccccc1CO2
166	COc1ccc(CN2C(=O)C(C)(c3ccc(F)cc3Cl)c3cc(Cl)ccc32)c(OC)c1 (configuration not stated)
229 to 231	CN(C)C(=O)c1nc(-c2ccccc2)nc2c1c1ccc(F)cc1n2C
105	COc1ccc2ccc(N3C(=O)c4ccccc4C3OC(=O)CCCC(C)C)nc2n1 (configuration not stated)
119 to 121	CC(O)(C=Cc1ccc(S(=O)(=O)N2CCCC2)cc1)C(F)(F)F (configuration not stated)
84 to 88	COC(=O)c1ccc(OCCNC(=O)C2Cc3ccccc3N2S(=O)(=O)c2ccc(-c3cccc(C(F)(F)F)c3)cc2)c(Cl)c1 (configuration not stated)
228 to 230	COC(=O)c1ccc(C(=O)NS(=O)(=O)c2ccc(CCNC(=O)c3ccccc3)cc2)cn1
248 to 250	Oc1ccc(-c2ncc3ncc(-c4ccsc4)cc3n2)cc1
81 to 82	COc1cccc(C2CCc3cc(OC)ccc3C2=O)c1 (configuration not stated)
177	Cc1nc(-c2ccc(C(F)(F)F)cc2)sc1Sc1ccc(Cc2nn[nH]n2)cc1
52 to 52.5	CCOC(=O)c1ccc(OCC(O)CC)cc1 (configuration not stated)

melting point [°C]	SMILES
268	COC(=O)CCCCCCC(=O)Nc1ccc(C(=O)NN=C2C(=O)Nc3ccc(I)cc32)cc1
75 to 77	CCOC(=O)C1(C(=O)OCC)COC2(CC(C)(C)N(C(C)=O)C(C)(C)C2)OC1
208 to 212	CN(c1ccc2c(c1)S(=O)(=O)C=C(c1c(O)c3cc(F)ccc3n(CCC3CC3)c1=O)N2)S(C)(=O)=O
105 to 108	CCCCOc1cc(CC(=O)O)n(Cc2ccc(Cl)cc2Cl)n1
137 to 138	O=C(CCCN1CCC2(CC1)OC(c1ccccc1)c1ccccc12)c1ccc(F)cc1 (configuration not stated)
179 to 180	CC(=O)N[C@@H](C)COc1ccc(-c2nc3ccc(OCC4CC4)cc3o2)nc1
160 to 162	N#Cc1c(-c2ccc(OCc3ccccc3)cc2)n(Cc2ccc(OCCCl)cc2)c2cccc(OCc3ccccc3)c12
250 to 255	COc1cc2ncc(C#N)c(Nc3cccc(CO)c3)c2cc1OC
102 to 106	Cc1ccc(S(=O)(=O)c2ccc(N3CCNCC3)cc2N)cc1
89 to 91	Cc1cn([C@H]2CC[C@H](CC(=O)O)C[C@@H]2NC(=O)OC(C)(C)C)c(=O)n(COCc2ccccc2)c1=O
79 to 80	CCOC(=O)C(CC(F)(F)CC(C)C1CCC2C3CC=C4CC(OC5CCCCO5)CCC4(C)C3CCC12C)C(=O)OCC (configuration not stated)
206 to 207	COc1cccc(OC)c1-c1ccc(C[C@H](NC(=O)c2c(Cl)cc(F)cc2Cl)C(=O)O)cc1
199	CCOC(=O)c1ccc(CN2CCN(C3=NC4(C=CC(=O)C=C4)C(c4ccccc4)=C3)CC2)cc1
280 to 283	COc1ccc2c(c1)c(=O)c(-c1nnnn1C)cn2C
28 to 32	CCOC(=S)c1sc(Cl)nc1C(F)(F)F
163 to 164	CCOC(=O)c1c(Cn2nccn2)nc2cc(OC)c(OC)cc2c1-c1ccc(OC)c(OC)c1
132 to 135	COc1ccccc1NC(=O)Nc1nc(Nc2ccccc2-c2ccccc2)nc(N(CCC(=O)O)Cc2cc(C(F)(F)F)cc(C(F)(F)F)c2)n1
222 to 226	CN(Cc1ccc(NC(=O)C2=Cc3cc(-c4ccc5c(c4)CCC(C)(C)O5)ccc3S(=O)(=O)CC2)cc1)C1CCOCC1
225 to 226	CN(c1cccc2cc(-c3ncc(CN4CCS(=O)(=O)CC4)s3)[nH]c12)S(=O)(=O)c1cccs1
57 to 58	CCOC(=O)c1ccc(Oc2ccc(C(C)=C3SCCCS3)cc2)cc1
120 to 121	O=C(C=Cc1cccc(Cl)c1)C=Cc1cccc(Cl)c1
142	CC(C)(C)C(=O)Oc1cc2c(c3ccccc13)Nc1ccccc1S2
65 to 67	O=C(NCCSCc1ccccc1)c1ccccc1

SMILES	melting point [°C]
CC(C)(C)NCC(O)c1cc(F)cc(C#N)c1F (configuration not stated)	99 to 101
CC1CN2CC(=O)N(C)c3ccc(Cl)cc3C2(c2ccccc2)O1 (configuration not stated)	142 to 143
